From patent publication US12539292B2, “BRM targeting compounds and associated methods of use” (Arvinas Operations, Inc., priority 2018, dated 2026)

Target: T1, BRM (Homo sapiens, UniProt P51531)
T1 construct: In-Cell Western Screen of BRM Degradation in SW1573 Cells; endogenous in cells; host or cells: SW1573
Experiment: In-cell Western screen of BRM degradation in SW1573 cells (Dmax and DC50)
Format: cell-based
Conditions: BRM degradation, SW1573 cells, Table 2D; for DC50: read-out: *DC50; for Dmax: read-out: **Dmax (%) (% degraded)
How it was run: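 Overnight compound treatment (18-20 h, final DMSO 0.1%) of SW1573 cells in DMEM with 10% FBS precedes fixation and in-cell Western staining with 800/680 nm dye-labelled secondaries. Plate images give DC50 and maximal degradation.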

T1 sequence (P51531 whole entry): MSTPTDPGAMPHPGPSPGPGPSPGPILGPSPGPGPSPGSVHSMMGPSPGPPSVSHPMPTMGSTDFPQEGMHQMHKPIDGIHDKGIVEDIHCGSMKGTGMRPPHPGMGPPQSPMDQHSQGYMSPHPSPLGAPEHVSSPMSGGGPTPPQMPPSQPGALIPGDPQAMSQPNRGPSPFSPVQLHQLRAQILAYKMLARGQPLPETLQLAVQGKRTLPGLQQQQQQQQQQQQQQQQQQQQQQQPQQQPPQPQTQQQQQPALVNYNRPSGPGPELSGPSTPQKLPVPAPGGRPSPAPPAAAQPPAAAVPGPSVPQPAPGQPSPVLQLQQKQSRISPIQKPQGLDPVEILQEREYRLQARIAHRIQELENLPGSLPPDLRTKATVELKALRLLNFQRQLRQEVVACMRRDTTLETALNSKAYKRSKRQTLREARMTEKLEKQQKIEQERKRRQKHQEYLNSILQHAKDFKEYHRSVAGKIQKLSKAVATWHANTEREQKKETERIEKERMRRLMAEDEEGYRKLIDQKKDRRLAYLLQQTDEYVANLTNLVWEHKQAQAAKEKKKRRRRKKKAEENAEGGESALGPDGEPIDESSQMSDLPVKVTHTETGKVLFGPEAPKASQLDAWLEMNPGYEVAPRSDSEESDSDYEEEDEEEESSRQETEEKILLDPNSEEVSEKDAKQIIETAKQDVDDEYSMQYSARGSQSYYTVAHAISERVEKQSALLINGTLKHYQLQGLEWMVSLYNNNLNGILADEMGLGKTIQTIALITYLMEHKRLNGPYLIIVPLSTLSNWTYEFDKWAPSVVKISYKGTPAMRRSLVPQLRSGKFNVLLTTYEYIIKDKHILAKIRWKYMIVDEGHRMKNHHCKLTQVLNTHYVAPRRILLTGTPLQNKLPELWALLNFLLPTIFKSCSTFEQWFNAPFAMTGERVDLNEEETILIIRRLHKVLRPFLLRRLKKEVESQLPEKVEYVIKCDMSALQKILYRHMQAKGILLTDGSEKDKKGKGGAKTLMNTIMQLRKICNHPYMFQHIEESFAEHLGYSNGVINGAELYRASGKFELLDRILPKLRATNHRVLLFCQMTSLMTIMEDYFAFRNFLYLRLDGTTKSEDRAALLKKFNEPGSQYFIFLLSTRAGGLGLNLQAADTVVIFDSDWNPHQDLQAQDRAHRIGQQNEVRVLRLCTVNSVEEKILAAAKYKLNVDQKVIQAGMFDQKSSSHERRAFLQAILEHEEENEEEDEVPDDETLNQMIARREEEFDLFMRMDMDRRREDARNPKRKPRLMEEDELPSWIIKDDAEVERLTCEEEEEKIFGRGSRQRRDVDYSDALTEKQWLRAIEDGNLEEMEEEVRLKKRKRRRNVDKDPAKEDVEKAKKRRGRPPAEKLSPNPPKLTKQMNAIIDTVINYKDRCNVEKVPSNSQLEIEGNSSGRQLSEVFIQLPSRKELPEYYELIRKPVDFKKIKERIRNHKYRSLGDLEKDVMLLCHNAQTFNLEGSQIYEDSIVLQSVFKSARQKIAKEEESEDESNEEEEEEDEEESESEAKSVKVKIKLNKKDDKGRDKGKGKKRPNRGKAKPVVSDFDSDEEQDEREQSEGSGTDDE

Compound	DC50 [nM]	Dmax [%]
Cc1cc([C@H](C(=O)N2C[C@H](O)C[C@H]2C(=O)N[C@@H](C)c2ccc(-c3scnc3C)cc2)[C@H](C)COCCCCn2cc(-c3cc(-c4ccccc4O)nnc3N)cn2)on1 [compound 558, (2S,4R)-1-((2R,3S)-4-(4-(4-(3-amino-6-(2-hydroxyphenyl)pyridazin-4-yl)-1H-pyrazol-1-yl)butoxy)-3-methyl-2-(3-methylisoxazol-5-yl)butanoyl)-4-hydroxy-N-((S)-1-(4-(4-methylthiazol-5-yl)phenyl)ethyl) pyrrolidine-2-carboxamide]	> 30	–
Cc1cc([C@@H](C(=O)N2C[C@H](O)C[C@H]2C(=O)N[C@@H](C)c2ccc(-c3scnc3C)cc2)[C@H](C)COCCCn2cc(-c3cc(-c4ccccc4O)nnc3N)cn2)on1 [compound 559, (2S,4R)-1-((2S,3S)-4-(3-(4-(3-amino-6-(2-hydroxyphenyl)pyridazin-4-yl)-1H-pyrazol-1-yl)propoxy)-3-methyl-2-(3-methylisoxazol-5-yl)butanoyl)-4-hydroxy-N-((S)-1-(4-(4-methylthiazol-5-yl)phenyl)ethyl)pyrrolidine-2-carboxamide]	> 30	–
Cc1cc([C@H](C(=O)N2C[C@H](O)C[C@H]2C(=O)N[C@@H](C)c2ccc(-c3scnc3C)cc2)[C@H](C)COCCCn2cc(-c3cc(-c4ccccc4O)nnc3N)cn2)on1 [compound 560, (2S,4R)-1-((2R,3S)-4-(3-(4-(3-amino-6-(2-hydroxyphenyl)pyridazin-4-yl)-1H-pyrazol-1-yl)propoxy)-3-methyl-2-(3-methylisoxazol-5-yl)butanoyl)-4-hydroxy-N-((S)-1-(4-(4-methylthiazol-5-yl)phenyl)ethyl)pyrrolidine-2-carboxamide]	> 30	–
COc1nc(-c2scnc2C)c(F)cc1[C@H](C)NC(=O)[C@@H]1C[C@@H](O)CN1C(=O)[C@H](c1cc(OCCN2CCC(O[C@H]3C[C@H](Oc4cc(N5C6CCC5CN(c5cc(-c7ccccc7O)nnc5N)C6)ccn4)C3)CC2)no1)C(C)C [compound 561, (2S,4R)-1-((2S)-2-(3-(2-(4-((1r,3S)-3-((4-(3-(3-amino-6-(2-hydroxyphenyl)pyridazin-4-yl)-3,8-diazabicyclo[3.2.1]octan-8-yl)pyridin-2-yl)oxy)cyclobutoxy)piperidin-1-yl)ethoxy)isoxazol-5-yl)-3-methylbutanoyl)-N-((S)-1-(5-fluoro-2-methoxy-6-(4-methylthiazol-5-yl)pyridin-3-yl)ethyl)-4-hydroxypyrrolidine-2-carboxamide]	> 30	–
COc1nc(-c2scnc2C)c(F)cc1[C@H](C)NC(=O)[C@@H]1C[C@@H](O)CN1C(=O)[C@@H](c1cc(OCCN2CCC(O[C@H]3C[C@H](Oc4cc(N5C6CCC5CN(c5cc(-c7ccccc7O)nnc5N)C6)ccn4)C3)CC2)no1)C(C)C [compound 562, (2S,4R)-1-((2R)-2-(3-(2-(4-((1r,3R)-3-((4-(3-(3-amino-6-(2-hydroxyphenyl)pyridazin-4-yl)-3,8-diazabicyclo[3.2.1]octan-8-yl)pyridin-2-yl)oxy)cyclobutoxy)piperidin-1-yl)ethoxy)isoxazol-5-yl)-3-methylbutanoyl)-N-((S)-1-(5-fluoro-2-methoxy-6-(4-methylthiazol-5-yl)pyridin-3-yl)ethyl)-4-hydroxypyrrolidine-2-carboxamide]	< 2.5	> 75
COc1nc(-c2scnc2C)c(F)cc1[C@@H](C)NC(=O)[C@@H]1C[C@@H](O)CN1C(=O)[C@H](c1cc(OCCN2CCC(O[C@H]3C[C@H](Oc4cc(N5C6CCC5CN(c5cc(-c7ccccc7O)nnc5N)C6)ccn4)C3)CC2)no1)C(C)C [compound 563, (2S,4R)-1-((2S)-2-(3-(2-(4-((1r,3S)-3-((4-(3-(3-amino-6-(2-hydroxyphenyl)pyridazin-4-yl)-3,8-diazabicyclo[3.2.1]octan-8-yl)pyridin-2-yl)oxy)cyclobutoxy)piperidin-1-yl)ethoxy)isoxazol-5-yl)-3-methylbutanoyl)-N-((R)-1-(5-fluoro-2-methoxy-6-(4-methylthiazol-5-yl)pyridin-3-yl)ethyl)-4-hydroxypyrrolidine-2-carboxamide]	> 30	–
COc1nc(-c2scnc2C)c(F)cc1[C@@H](C)NC(=O)[C@@H]1C[C@@H](O)CN1C(=O)[C@@H](c1cc(OCCN2CCC(O[C@H]3C[C@H](Oc4cc(N5C6CCC5CN(c5cc(-c7ccccc7O)nnc5N)C6)ccn4)C3)CC2)no1)C(C)C [compound 564, (2S,4R)-1-((2R)-2-(3-(2-(4-((1r,3R)-3-((4-(3-(3-amino-6-(2-hydroxyphenyl)pyridazin-4-yl)-3,8-diazabicyclo[3.2.1]octan-8-yl)pyridin-2-yl)oxy)cyclobutoxy)piperidin-1-yl)ethoxy)isoxazol-5-yl)-3-methylbutanoyl)-N-((R)-1-(5-fluoro-2-methoxy-6-(4-methylthiazol-5-yl)pyridin-3-yl)ethyl)-4-hydroxypyrrolidine-2-carboxamide]	> 30	–
CNC(=O)CCC[C@H](NC(=O)[C@@H]1C[C@@H](O)CN1C(=O)[C@H](c1cc(OCCN2CCC(O[C@H]3C[C@H](Oc4cc(N5C6CCC5CN(c5cc(-c7ccccc7O)nnc5N)C6)ccn4)C3)CC2)no1)C(C)C)c1ccc(-c2scnc2C)cc1 [compound 569, (2S,4R)-1-((2S)-2-(3-(2-(4-((1r,3S)-3-((4-(3-(3-amino-6-(2-hydroxyphenyl)pyridazin-4-yl)-3,8-diazabicyclo[3.2.1]octan-8-yl)pyridin-2-yl)oxy)cyclobutoxy)piperidin-1-yl)ethoxy)isoxazol-5-yl)-3-methylbutanoyl)-4-hydroxy-N-((S)-5-(methylamino)-1-(4-(4-methylthiazol-5-yl)phenyl)-5-oxopentyl)pyrrolidine-2-carboxamide]	> 30	–
CNC(=O)CCC[C@H](NC(=O)[C@@H]1C[C@@H](O)CN1C(=O)[C@@H](c1cc(OCCN2CCC(O[C@H]3C[C@H](Oc4cc(N5C6CCC5CN(c5cc(-c7ccccc7O)nnc5N)C6)ccn4)C3)CC2)no1)C(C)C)c1ccc(-c2scnc2C)cc1 [compound 570, (2S,4R)-1-((2R)-2-(3-(2-(4-((1r,3R)-3-((4-(3-(3-amino-6-(2-hydroxyphenyl)pyridazin-4-yl)-3,8-diazabicyclo[3.2.1]octan-8-yl)pyridin-2-yl)oxy)cyclobutoxy)piperidin-1-yl)ethoxy)isoxazol-5-yl)-3-methylbutanoyl)-4-hydroxy-N-((S)-5-(methylamino)-1-(4-(4-methylthiazol-5-yl)phenyl)-5-oxopentyl)pyrrolidine-2-carboxamide]	< 2.5	> 75
Cc1ncsc1-c1ccc([C@@H](NC(=O)[C@@H]2C[C@@H](O)CN2C(=O)[C@H](c2cc(N3CCC(CN4CCC(O[C@H]5C[C@H](Oc6cc(N7C8CCC7CN(c7cc(-c9ccccc9O)nnc7N)C8)ccn6)C5)CC4)CC3)no2)C(C)C)C(F)F)cc1 [compound 571, (2S,4R)-1-((2S)-2-(3-(4-((4-((1r,3r)-3-((4-(3-(3-amino-6-(2-hydroxyphenyl)pyridazin-4-yl)-3,8-diazabicyclo[3.2.1]octan-8-yl)pyridin-2-yl)oxy)cyclobutoxy)piperidin-1-yl)methyl)piperidin-1-yl)isoxazol-5-yl)-3-methylbutanoyl)-N-((R)-2,2-difluoro-1-(4-(4-methylthiazol-5-yl)phenyl)ethyl)-4-hydroxypyrrolidine-2-carboxamide]	> 30	–
Cc1ncsc1-c1ccc([C@@H](NC(=O)[C@@H]2C[C@@H](O)CN2C(=O)[C@@H](c2cc(N3CCC(CN4CCC(O[C@H]5C[C@H](Oc6cc(N7C8CCC7CN(c7cc(-c9ccccc9O)nnc7N)C8)ccn6)C5)CC4)CC3)no2)C(C)C)C(F)F)cc1 [compound 572, (2S,4R)-1-((2R)-2-(3-(4-((4-((1r,3r)-3-((4-(3-(3-amino-6-(2-hydroxyphenyl)pyridazin-4-yl)-3,8-diazabicyclo[3.2.1]octan-8-yl)pyridin-2-yl)oxy)cyclobutoxy)piperidin-1-yl)methyl)piperidin-1-yl)isoxazol-5-yl)-3-methylbutanoyl)-N-((R)-2,2-difluoro-1-(4-(4-methylthiazol-5-yl)phenyl)ethyl)-4-hydroxypyrrolidine-2-carboxamide]	< 2.5	> 75
Cc1nccn1-c1ccc([C@H](C)NC(=O)[C@@H]2C[C@@H](O)CN2C(=O)[C@H](c2cc(N3CCN(C[C@H]4C[C@H](Oc5cc(N6C7CCC6CN(c6cc(-c8ccccc8O)nnc6N)C7)ccn5)C4)CC3)no2)C(C)C)cc1 [compound 575, (2S,4R)-1-((2S)-2-(3-(4-(((1r,3S)-3-((4-(3-(3-amino-6-(2-hydroxyphenyl)pyridazin-4-yl)-3,8-diazabicyclo[3.2.1]octan-8-yl)pyridin-2-yl)oxy)cyclobutyl)methyl)piperazin-1-yl)isoxazol-5-yl)-3-methylbutanoyl)-4-hydroxy-N-((S)-1-(4-(2-methyl-1H-imidazol-1-yl)phenyl)ethyl)pyrrolidine-2-carboxamide]	10 to 30	50 to 75
Cc1nccn1-c1ccc([C@H](C)NC(=O)[C@@H]2C[C@@H](O)CN2C(=O)[C@@H](c2cc(N3CCN(C[C@H]4C[C@H](Oc5cc(N6C7CCC6CN(c6cc(-c8ccccc8O)nnc6N)C7)ccn5)C4)CC3)no2)C(C)C)cc1 [compound 576, (2S,4R)-1-((2R)-2-(3-(4-(((1r,3R)-3-((4-(3-(3-amino-6-(2-hydroxyphenyl)pyridazin-4-yl)-3,8-diazabicyclo[3.2.1]octan-8-yl)pyridin-2-yl)oxy)cyclobutyl)methyl)piperazin-1-yl)isoxazol-5-yl)-3-methylbutanoyl)-4-hydroxy-N-((S)-1-(4-(2-methyl-1H-imidazol-1-yl)phenyl)ethyl)pyrrolidine-2-carboxamide]	< 2.5	> 75
